Counter-ions that a name gives are not always drawn.
Tested on: mildew
Test: Mildew resistance testing of caulking adhesives, ASTM D3273
Format: cell-based
Method: Testing was also completed on Franklin International Caulking Adhesives. The testing that was conducted was done in accordance with test ASTM D3273 as set forth in the Annual Book of ASTM Standards, Vol 06.01 which is hereby incorporated by reference. This is a standard test method for mildew known to those skilled in the art. When performing this test OPP was not tested by itself as it is known in the art of coatings that significant amounts of OPP are required, typically in the range of 2,000 to 10,000 ppm which is supported by EPA Registration No.'s 39967-11-67869 and EPA Registration No. 464-78-67869. An example of the significant amounts of OPP needed can also be seen in the OPP results in the paint testing shown above.
• 10=No Mildew Growth, Excellent Mildew Resistance • 7-9=Trace Mildew Growth, Very Good Mildew Resistance • 6-5=Moderate Mildew Growth, Poor Mildew Resistance • 4-0=Heavy Mildew Growth, Failed

[1] = Titebond Professional Drywall Adhesive, 500 ppm
[2] = Titebond Professional Drywall Adhesive, 1000 ppm
[3] = Titebond Professional Drywall Adhesive, 1500 ppm
[4] = Titebond Professional Drywall Adhesive, 2000 ppm
[5] = Titebond Professional Tub Surround Adhesive, 500 ppm
[6] = Titebond Professional Tub Surround Adhesive, 1000 ppm
[7] = Titebond Professional Tub Surround Adhesive, 1500 ppm
[8] = Titebond Professional Tub Surround Adhesive, 2000 ppm
[9] = Titebond Solvent Free Construction Adhesive, 500 ppm
[10] = Titebond Solvent Free Construction Adhesive, 1000 ppm
[11] = Titebond Solvent Free Construction Adhesive, 1500 ppm
[12] = Titebond Solvent Free Construction Adhesive, 2000 ppm
[13] = Titebond Solvent Free Fast Grab FRP Adhesive, 500 ppm
[14] = Titebond Solvent Free Fast Grab FRP Adhesive, 1000 ppm
[15] = Titebond Solvent Free Fast Grab FRP Adhesive, 1500 ppm
[16] = Titebond Solvent Free Fast Grab FRP Adhesive, 2000 ppm
[17] = Titebond Solvent Free Subfloor Adhesive, 500 ppm
[18] = Titebond Solvent Free Subfloor Adhesive, 1000 ppm
[19] = Titebond Solvent Free Subfloor Adhesive, 1500 ppm
[20] = Titebond Solvent Free Subfloor Adhesive, 2000 ppm

CCCCCCCCCCCCNC(=N)N [DGH, Dodecylguanidine Hydrochloride]
9: Mildew Results 28 Days [15]
0: Mildew Results 21 Days [13] | Mildew Results 28 Days [13] | Mildew Results 21 Days [14] | Mildew Results 28 Days [14] | Mildew Results 21 Days [17] | Mildew Results 28 Days [17] | Mildew Results 21 Days [18] | Mildew Results 28 Days [18] | Mildew Results 21 Days [19] | Mildew Results 28 Days [19]
10: Mildew Results 7 Days [1] | Mildew Results 14 Days [1] | Mildew Results 21 Days [1] | Mildew Results 28 Days [1] | Mildew Results 7 Days [2] | Mildew Results 14 Days [2] | Mildew Results 21 Days [2] | Mildew Results 28 Days [2] | Mildew Results 7 Days [3] | Mildew Results 14 Days [3] | Mildew Results 21 Days [3] | Mildew Results 28 Days [3] | Mildew Results 7 Days [4] | Mildew Results 14 Days [4] | Mildew Results 21 Days [4] | Mildew Results 28 Days [4] | Mildew Results 7 Days [5] | Mildew Results 14 Days [5] | Mildew Results 21 Days [5] | Mildew Results 28 Days [5] | Mildew Results 7 Days [6] | Mildew Results 14 Days [6] | Mildew Results 21 Days [6] | Mildew Results 28 Days [6] | Mildew Results 7 Days [7] | Mildew Results 14 Days [7] | Mildew Results 21 Days [7] | Mildew Results 28 Days [7] | Mildew Results 7 Days [8] | Mildew Results 14 Days [8] | Mildew Results 21 Days [8] | Mildew Results 28 Days [8] | Mildew Results 7 Days [9] | Mildew Results 14 Days [9] | Mildew Results 21 Days [9] | Mildew Results 28 Days [9] | Mildew Results 7 Days [10] | Mildew Results 14 Days [10] | Mildew Results 21 Days [10] | Mildew Results 28 Days [10] | Mildew Results 7 Days [11] | Mildew Results 14 Days [11] | Mildew Results 21 Days [11] | Mildew Results 28 Days [11] | Mildew Results 7 Days [12] | Mildew Results 14 Days [12] | Mildew Results 21 Days [12] | Mildew Results 28 Days [12] | Mildew Results 7 Days [13] | Mildew Results 14 Days [13] | Mildew Results 7 Days [14] | Mildew Results 14 Days [14] | Mildew Results 7 Days [15] | Mildew Results 14 Days [15] | Mildew Results 21 Days [15] | Mildew Results 7 Days [16] | Mildew Results 14 Days [16] | Mildew Results 21 Days [16] | Mildew Results 28 Days [16] | Mildew Results 7 Days [20] | Mildew Results 14 Days [20] | Mildew Results 21 Days [20] | Mildew Results 28 Days [20]
7: Mildew Results 7 Days [17] | Mildew Results 14 Days [17] | Mildew Results 7 Days [18] | Mildew Results 14 Days [18] | Mildew Results 7 Days [19] | Mildew Results 14 Days [19]

— US20100160445A1, “Synergistic Mixtures of OPP and DGH” (priority 2002, published 2010)
